In patent US11998553B2, “Certain (2S)-N-[(1S)-1-cyano-2-phenylethyl]-1,4-oxazepane-2-carboxamides for treating lupus nephritis” (Insmed Incorporated, priority 2018, dated 2024):

Tested on: NZB/WF1 mice
Assay: Accelerated lupus nephritis model in mice (Ad-IFNα5 injection)
Assay type: in vivo
Experimental: INS1007 as a potential treatment for LN was assessed. 10-11 week old female New Zealand Black/New Zealand White F1 (NZB/WF1) mice (Jackson Laboratory) were subjected to a single injection of an adenovirus expressing IFNα5 (Ad-IFNα5, BioXcell, cat #BE0241, clone AR1-5A3) to accelerate the clinical manifestations of LN. FIG. 1 provides a schematic overview of the study design.
The duration of the study was 8 weeks from Ad-IFNα5 injection.
Urine and blood collection was carried out at baseline (immediately after Ad-IFNα5 injection), and at weeks 2, 4, 6 and 8. Total protein (by chemstick), albumin (by ELISA) and creatinine (by a colorimetric assay kit) was measured in urine and blood urea nitrogen (BUN) was measured in plasma.
Animals were sacrificed at 8 weeks and the left kidney of each animal was used for histopathology analysis. Pathology scores are summed from individual scores of three aspects: glomerulonephritis, tubular protein and nephropathy and were scored by a Certified Veterinary Pathologist.
The right kidneys of each animal were used for FACS analysis. Right kidneys were digested and subjected to Percoll centrifugation, fixable-viability-dye and surface staining for the following markers: CD45, CD3, CD11b, F4/80, Ly6G and Ly6C. Results of FACS are provided at FIGS. 7-13.

Q: Which results are given for `Cn1c(=O)oc2ccc(-c3ccc(C[C@@H](C#N)NC(=O)[C@@H]4CNCCCO4)cc3)cc21` [INS1007, (2S)—N-{(1S)-1-cyano-2-[4-(3-methyl-2-oxo-2,3-dihydro-1,3-benzoxazol-5-yl)phenyl]ethyl}-1,4-oxazepane-2-carboxamide]?
A: pseudo-survival (urine total protein less than 750 mg/dL) (days post Ad-IFNα5 injection, INS1007 0.1, 1, 10 mg/kg PO twice daily, FIG. 5): increased “pseudo-survival” (and decreased total protein concentration) in a dose dependent manner; renal pathology score sum (glomerulonephritis, tubular protein, nephropathy) (left kidney histopathology at 8 weeks, vs vehicle, FIG. 6): decreased renal pathology as compared to vehicle control; blood urea nitrogen (BUN) levels (plasma BUN (mg/dL), 6 weeks after model induction, INS1007 0.1, 1, 10 mg/kg PO twice daily, FIG. 4): decreased in animals treated with INS1007 in a dose dependent matter; T-lymphocyte percent of total kidney cells (right kidney FACS, CD45+, CD3+, week 8, FIG. 13): significantly decreased; Ly6C+ macrophage percent of total kidney cells (right kidney FACS, CD45+, CD11b+, F4/80+, Ly6C+, Ly6G−, week 8, FIG. 11): significantly decreased; Ly6C+ monocyte percent of total kidney cells (right kidney FACS, CD45+, CD11b+, Ly6G−, Ly6C+, week 8, FIG. 10): significantly decreased; myelocyte percent of total kidney cells (right kidney FACS, CD45+, CD11b+, week 8, FIG. 8): significantly decreased; urinary protein concentration (urine total protein by chemstick (mg/dL), week 8, INS1007 0.1, 1, 10 mg/kg PO twice daily from week 2, FIG. 3): decrease in urinary protein concentration (mg/dL) in a dose dependent manner
